# Measurements from US20230233569A1 (Revolution Medicines, Inc., priority 2020, published 2023).
# How the values were obtained:
# KRAS WT = KRAS WT (Homo sapiens, UniProt P01116+P62937); test: Disruption of BRAF RBD interaction with Ras (FRET / MOA assay, with Cyclophilin A); assay type: biochemical; details: KRAS WT; read-out: KRAS WT FRET data IC50
# Summary of the method: (§1)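 Compound-driven ternary complex formation between nucleotide-loaded K-Ras and Cyclophilin A was measured as loss of BRAF RBD binding. Compounds (10-point 3-fold series, top 30 μM final) were incubated 3 h at 25 °C, then anti-His Eu-W1024 (10 nM) and anti-GST allophycocyanin (50 nM) added for 1.5 h. IC50 was taken from the TR-FRET ratio decrease versus DMSO.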
# NRAS G12C = NRAS G12C (Homo sapiens, UniProt P01111+P62937, G12C); test: as above; assay type: biochemical; details: NRAS G12C; read-out: NRAS G12C FRET data IC50
# KRAS G12D = KRAS G12D (Homo sapiens, UniProt P01116+P62937, G12D); test: as above; assay type: biochemical; details: read-out: KRAS G12D FRET data, IC50
# Summary of the method: as §1
# KRAS G12V = KRAS G12V (Homo sapiens, UniProt P01116+P62937, G12V); test: as above; assay type: biochemical; details: KRAS G12V; read-out: KRAS G12V FRET data IC50
# Summary of the method: as §1
# KRAS G13D = KRAS G13D (Homo sapiens, UniProt P01116+P62937, G13D); test: as above; assay type: biochemical; details: KRAS G13D; read-out: KRAS G13D FRET data IC50
# Summary of the method: as §1
# KRAS G12S = KRAS G12S (Homo sapiens, UniProt P01116+P62937, G12S); test: as above; assay type: biochemical; details: read-out: KRAS G12S FRET data, IC50
# Summary of the method: as §1
# KRAS G13C = KRAS G13C (Homo sapiens, UniProt P01116+P62937, G13C); test: as above; assay type: biochemical; details: read-out: KRAS G13C FRET data, IC50
# Summary of the method: as §1
# KRAS G12C = KRAS G12C (Homo sapiens, UniProt P01116+P62937, G12C); test: as above; assay type: biochemical; details: read-out: KRAS G12C FRET data, IC50
# Summary of the method: as §1
# NRAS WT = NRAS WT (Homo sapiens, UniProt P01111+P62937); test: as above; assay type: biochemical; details: NRAS WT; read-out: NRAS WT FRET data IC50
# Summary of the method: (§2)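 TR-FRET in 25 mM HEPES pH 7.3, 100 mM NaCl, 5 mM MgCl2, 0.1% BSA: 25 μM Cyclophilin A, 12.5 nM His6-Ras-GMPPNP, 50 nM GST-BRAF RBD with compound (10-point 3-fold series from 30 μM), 3 h at 25° C. Anti-His Eu/anti-GST APC added, 1.5 h more; IC50 from decreased FRET ratio versus DMSO.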
# NRAS Q61K = NRAS Q61K (Homo sapiens, UniProt P01111+P62937, Q61K); test: as above; assay type: biochemical; details: NRAS Q61K; read-out: NRAS Q61K FRET data IC50
# Summary of the method: as §2
# KRAS Q61H = KRAS Q61H (Homo sapiens, UniProt P01116+P62937, Q61H); test: as above; assay type: biochemical; details: KRAS Q61H; read-out: KRAS Q61H FRET data IC50
# Summary of the method: as §2
# NRAS Q61R = NRAS Q61R (Homo sapiens, UniProt P01111+P62937, Q61R); test: as above; assay type: biochemical; details: NRAS Q61R; read-out: NRAS Q61R FRET data IC50
# Summary of the method: as §2
# NCI-H358 (K-Ras G12C) = test: CellTiter-Glo cell viability assay, 5-day treatment; assay type: cell-based; details: Homo sapiens, NCI-H358, 120 h, 5-day treatment; read-out: H358 Cell Viability assay data (K-Ras G12C, IC50)
# Summary of the method: (§3)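 Seeded cells received test compound by direct dispensing. On day 5 the plates sat at room temperature approximately 30 minutes, then luminescence was measured. Data were normalized to DMSO and curve-fitted with four parameters.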
# Capan-1 (K-Ras G12V) = test: as above; assay type: cell-based; details: Homo sapiens, CAPAN-1, 120 h, 5-day treatment; read-out: Capan-1 Cell Viability assay data (K-Ras G12V, IC50)
# Summary of the method: as §3
# Sequence of NRAS Q61K (P01111 whole entry Q61K): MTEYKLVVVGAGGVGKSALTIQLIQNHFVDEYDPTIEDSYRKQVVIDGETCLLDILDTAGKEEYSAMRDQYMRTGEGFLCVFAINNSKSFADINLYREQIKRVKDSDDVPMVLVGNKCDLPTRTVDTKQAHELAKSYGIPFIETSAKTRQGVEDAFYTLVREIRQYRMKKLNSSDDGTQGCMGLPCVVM
# Sequence of NRAS Q61K (P62937 whole entry): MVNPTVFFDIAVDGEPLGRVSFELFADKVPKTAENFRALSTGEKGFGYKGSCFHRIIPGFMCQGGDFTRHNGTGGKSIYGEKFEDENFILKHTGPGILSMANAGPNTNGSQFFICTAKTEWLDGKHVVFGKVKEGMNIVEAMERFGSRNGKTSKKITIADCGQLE
# Sequence of KRAS G12C (P01116 1-169 isoform P01116-2 G12C): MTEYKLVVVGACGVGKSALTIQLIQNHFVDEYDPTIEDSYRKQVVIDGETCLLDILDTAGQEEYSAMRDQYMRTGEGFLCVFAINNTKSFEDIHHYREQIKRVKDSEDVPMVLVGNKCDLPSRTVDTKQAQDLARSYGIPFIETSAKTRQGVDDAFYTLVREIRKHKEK
# Sequence of KRAS G12C (P62937 whole entry): as the sequence (P62937 whole entry) above
# Sequence of KRAS WT (P01116 1-169 isoform P01116-2 limits assumed): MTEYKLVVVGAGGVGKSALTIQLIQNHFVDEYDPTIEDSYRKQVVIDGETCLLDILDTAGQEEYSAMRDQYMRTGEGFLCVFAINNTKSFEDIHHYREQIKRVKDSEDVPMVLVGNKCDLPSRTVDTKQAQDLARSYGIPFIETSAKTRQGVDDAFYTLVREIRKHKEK
# Sequence of KRAS WT (P62937 whole entry): as the sequence (P62937 whole entry) above
# Sequence of NRAS WT (P01111 whole entry): as the sequence (P01111 whole entry Q61K) above, with K61Q counted along it
# Sequence of NRAS WT (P62937 whole entry): as the sequence (P62937 whole entry) above
# Sequence of NRAS Q61R (P01111 whole entry Q61R): as the sequence (P01111 whole entry Q61K) above, with K61R counted along it
# Sequence of NRAS Q61R (P62937 whole entry): as the sequence (P62937 whole entry) above
# Sequence of KRAS G13C (P01116 1-169 isoform P01116-2 G13C): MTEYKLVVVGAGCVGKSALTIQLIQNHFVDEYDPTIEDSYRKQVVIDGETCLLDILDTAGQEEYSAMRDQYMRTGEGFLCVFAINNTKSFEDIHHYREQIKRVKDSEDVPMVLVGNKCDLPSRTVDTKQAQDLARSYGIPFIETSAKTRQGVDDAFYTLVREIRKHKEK
# Sequence of KRAS G13C (P62937 whole entry): as the sequence (P62937 whole entry) above
# Sequence of KRAS G13D (P01116 1-169 isoform P01116-2 G13D limits assumed): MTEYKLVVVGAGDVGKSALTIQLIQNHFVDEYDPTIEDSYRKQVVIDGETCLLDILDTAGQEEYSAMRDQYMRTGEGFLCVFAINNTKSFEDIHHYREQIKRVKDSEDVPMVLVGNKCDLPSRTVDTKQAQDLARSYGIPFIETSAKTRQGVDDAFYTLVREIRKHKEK
# Sequence of KRAS G13D (P62937 whole entry): as the sequence (P62937 whole entry) above
# Sequence of KRAS G12D (P01116 1-169 isoform P01116-2 G12D limits assumed): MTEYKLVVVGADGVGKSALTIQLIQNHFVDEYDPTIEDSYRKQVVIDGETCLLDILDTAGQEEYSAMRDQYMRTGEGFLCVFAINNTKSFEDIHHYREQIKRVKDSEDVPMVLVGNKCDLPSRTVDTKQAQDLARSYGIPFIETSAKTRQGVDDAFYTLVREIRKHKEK
# Sequence of KRAS G12D (P62937 whole entry): as the sequence (P62937 whole entry) above
# Sequence of KRAS G12S (P01116 1-169 isoform P01116-2 G12S limits assumed): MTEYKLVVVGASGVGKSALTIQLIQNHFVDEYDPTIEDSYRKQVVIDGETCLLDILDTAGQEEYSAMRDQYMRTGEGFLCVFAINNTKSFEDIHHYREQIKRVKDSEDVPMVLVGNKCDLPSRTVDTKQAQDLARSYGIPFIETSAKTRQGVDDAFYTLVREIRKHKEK
# Sequence of KRAS G12S (P62937 whole entry): as the sequence (P62937 whole entry) above
# Sequence of KRAS Q61H (P01116 1-169 isoform P01116-2 Q61H limits assumed): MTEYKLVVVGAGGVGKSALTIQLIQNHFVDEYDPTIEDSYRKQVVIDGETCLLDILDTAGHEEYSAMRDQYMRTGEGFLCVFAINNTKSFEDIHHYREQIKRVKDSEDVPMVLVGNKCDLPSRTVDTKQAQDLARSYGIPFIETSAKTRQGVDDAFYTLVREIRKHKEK
# Sequence of KRAS Q61H (P62937 whole entry): as the sequence (P62937 whole entry) above
# Sequence of NRAS G12C (P01111 whole entry G12C): as the sequence (P01111 whole entry Q61K) above, with G12C, K61Q counted along it
# Sequence of NRAS G12C (P62937 whole entry): as the sequence (P62937 whole entry) above
# Sequence of KRAS G12V (P01116 1-169 isoform P01116-2 G12V limits assumed): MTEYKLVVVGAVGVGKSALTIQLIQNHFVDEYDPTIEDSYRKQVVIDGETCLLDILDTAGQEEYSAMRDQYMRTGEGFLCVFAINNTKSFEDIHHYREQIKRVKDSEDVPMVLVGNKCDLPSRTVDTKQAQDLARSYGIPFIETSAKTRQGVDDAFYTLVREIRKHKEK
# Sequence of KRAS G12V (P62937 whole entry): as the sequence (P62937 whole entry) above
SMILES,IC50 (KRAS WT) [nM],IC50 (NRAS G12C) [nM],IC50 (KRAS G12D) [nM],IC50 (KRAS G12V) [nM],IC50 (KRAS G13D) [nM],IC50 (KRAS G12S) [nM],IC50 (KRAS G13C) [nM],IC50 (KRAS G12C) [nM],IC50 (NRAS WT) [nM],IC50 (NRAS Q61K) [nM],IC50 (KRAS Q61H) [nM],IC50 (NRAS Q61R) [nM],IC50 (NCI-H358 (K-Ras G12C)) [nM],IC50 (Capan-1 (K-Ras G12V)) [nM]
"CCn1c(-c2cccnc2[C@H](C)OC)c2c3cc(ccc31)-c1csc(n1)C[C@H](NC(=O)[C@H](C(C)C)N(C)C(=O)N1CCCC13COC3)C(=O)N1CCC[C@H](N1)C(=O)OCC(C)(C)C2 (atropisomer, axis not shown) [Example A528]",10 to 100,10 to 100,100 to 1000,100 to 1000,100 to 1000,100 to 1000,100 to 1000,10 to 100,10 to 100,10 to 100,10 to 100,10 to 100,10 to 100,10 to 100
"CCn1c(-c2cc(N3CCN(C)CC3)cnc2[C@H](C)OC)c2c3cc(ccc31)-c1csc(n1)C[C@H](NC(=O)[C@H](C1CCCC1)N(C)C(=O)N1CCC1)C(=O)N1CCC[C@H](N1)C(=O)OCC(C)(C)C2 (atropisomer, axis not shown) [Example A529]",10 to 100,10 to 100,100 to 1000,10 to 100,10 to 100,10 to 100,10 to 100,10 to 100,10 to 100,10 to 100,10 to 100,10 to 100,< 10,< 10
"CCn1c(-c2cccnc2[C@H](C)OC)c2c3cc(ccc31)-c1csc(n1)C[C@H](NC(=O)[C@H](C(C)C)N(C)C(=O)N1CCC[C@@H](N(C)C)C1)C(=O)N1CCC[C@H](N1)C(=O)OCC(C)(C)C2 (atropisomer, axis not shown) [Example A531]",100 to 1000,10 to 100,100 to 1000,100 to 1000,100 to 1000,100 to 1000,100 to 1000,100 to 1000,10 to 100,10 to 100,10 to 100,100 to 1000,10 to 100,10 to 100
"CCn1c(-c2cccnc2[C@H](C)OC)c2c3cc(ccc31)-c1csc(n1)C[C@H](NC(=O)[C@H](C(C)C)N(C)C(=O)N1CC3(CC(N(C)CCOC)C3)C1)C(=O)N1CCC[C@H](N1)C(=O)OCC(C)(C)C2 (atropisomer, axis not shown) [Example A532]",100 to 1000,100 to 1000,1000 to 10000,100 to 1000,100 to 1000,100 to 1000,100 to 1000,100 to 1000,100 to 1000,10 to 100,100 to 1000,100 to 1000,10 to 100,10 to 100
"CCn1c(-c2cccnc2[C@H](C)OC)c2c3cc(ccc31)-c1cc(O)cc(c1)C[C@H](NC(=O)[C@H](C(C)C)N(C)C(=O)[C@@H]1OCC[C@@H]1c1cccnc1)C(=O)N1CCC[C@H](N1)C(=O)OCC(C)(C)C2 (atropisomer, axis not shown) [Example A546]",10 to 100,10 to 100,10 to 100,10 to 100,10 to 100,10 to 100,10 to 100,< 10,10 to 100,10 to 100,< 10,10 to 100,< 10,10 to 100
"CCn1c(-c2cccnc2[C@H](C)OC)c2c3cc(ccc31)-c1csc(n1)C[C@H](NC(=O)[C@H](C(C)C)N(C)C(=O)N1CC(S(=O)(=O)NC)C1)C(=O)N1CCC[C@H](N1)C(=O)OCC(C)(C)C2 (atropisomer, axis not shown) [Example A549]",100 to 1000,10 to 100,100 to 1000,100 to 1000,100 to 1000,100 to 1000,100 to 1000,10 to 100,100 to 1000,10 to 100,10 to 100,100 to 1000,10 to 100,10 to 100
"CCn1c(-c2cccnc2[C@H](C)OC)c2c3cc(ccc31)-c1csc(n1)C[C@H](NC(=O)[C@H](C(C)C)N(C)C(=O)N1CC(N(C)S(C)(=O)=O)C1)C(=O)N1CCC[C@H](N1)C(=O)OCC(C)(C)C2 (atropisomer, axis not shown) [Example A550]",100 to 1000,10 to 100,1000 to 10000,100 to 1000,100 to 1000,100 to 1000,100 to 1000,10 to 100,100 to 1000,10 to 100,10 to 100,100 to 1000,10 to 100,10 to 100
"CCn1c(-c2cc(N3CCN(C)CC3)cnc2[C@H](C)OC)c2c3cc(ccc31)-c1csc(n1)C[C@H](NC(=O)[C@H](C(C)C)N(C)C(=O)N1CCOCC1)C(=O)N1CCC[C@H](N1)C(=O)OCC(C)(C)C2 (atropisomer, axis not shown) [Example A555]",10 to 100,10 to 100,100 to 1000,10 to 100,100 to 1000,10 to 100,10 to 100,10 to 100,10 to 100,10 to 100,10 to 100,10 to 100,< 10,< 10
"CCn1c(-c2cc(N3CCN(C)CC3)cnc2[C@H](C)OC)c2c3cc(ccc31)-c1cccc(c1)C[C@H](NC(=O)[C@H](C(C)C)N(C)C(=O)[C@@H]1OCC[C@@H]1c1ccccc1)C(=O)N1CCC[C@H](N1)C(=O)OCC(C)(C)C2 (atropisomer, axis not shown) [Example A562]",10 to 100,10 to 100,100 to 1000,10 to 100,100 to 1000,100 to 1000,10 to 100,10 to 100,10 to 100,100 to 1000,10 to 100,10 to 100,< 10,< 10
